Experimental data: patent publication US20230218632A1, “CYCLIC SULFONAMIDE DERIVATIVES AS TRAP1 MODULATORS AND USES THEREOF” (Amathus Therapeutics, Inc., priority 2020, published 2023)

Experiments:
TRAP1 enzyme = target: T1, TRAP1 enzyme (Homo sapiens, UniProt Q12931); assay: ADP Glo assay (ATPase activity of TRAP1); type: biochemical
T1 sequence (Q12931 60-704): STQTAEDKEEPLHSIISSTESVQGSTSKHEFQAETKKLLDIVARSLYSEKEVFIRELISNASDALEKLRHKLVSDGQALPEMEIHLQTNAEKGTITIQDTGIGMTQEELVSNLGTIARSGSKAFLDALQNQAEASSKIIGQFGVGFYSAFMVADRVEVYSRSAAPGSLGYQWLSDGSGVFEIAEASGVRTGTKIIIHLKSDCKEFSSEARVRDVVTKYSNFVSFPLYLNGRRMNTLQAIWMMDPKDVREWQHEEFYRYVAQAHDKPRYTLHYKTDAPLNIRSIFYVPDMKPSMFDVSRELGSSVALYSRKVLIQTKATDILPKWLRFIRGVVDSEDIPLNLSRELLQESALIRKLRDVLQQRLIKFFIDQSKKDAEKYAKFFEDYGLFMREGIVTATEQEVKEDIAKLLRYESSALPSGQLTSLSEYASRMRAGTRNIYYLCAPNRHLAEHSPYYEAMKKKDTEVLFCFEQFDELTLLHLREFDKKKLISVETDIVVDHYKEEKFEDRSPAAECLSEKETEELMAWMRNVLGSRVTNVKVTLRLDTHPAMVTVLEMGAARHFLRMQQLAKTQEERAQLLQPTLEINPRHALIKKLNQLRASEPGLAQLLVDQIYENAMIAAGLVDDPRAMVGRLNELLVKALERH
Method in brief: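 150 nM TRAP1 preincubated 30 min at 37 °C with compound (0.79–100 µM) in 25 mM Pipes pH 7.5, 40 mM KCl, 0.05 mM MgCl2; reaction started with 20 µM ATP, 60 min at 37 °C. ADP quantified by ADP-Glo luminescence against an ATP/ADP standard curve; Emax and EC50 from sigmoidal fits of activation.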

[1] = tested on: primary rat dopaminergic neurons; assay: ROS production in primary rat dopaminergic TH-positive neurons after 6-OHDA injury; type: cell-based; conditions: after injury with 6-OHDA (20 µM, 4 h); FIG. 1
Method: Rat dopaminergic neurons were cultured as described by Visanji et al., 2008. Briefly, pregnant female rat of 15 days of gestation are sacrificed using a deep anesthesia with CO2 chamber and a cervical dislocation. The midbrains obtained from 15-day-old rat embryos are dissected under a microscope. The embryonic midbrains are removed and placed in ice-cold medium of Leibovitz (L15) containing 2% of Penicillin- Streptomycin (PS) and 1% of bovine serum albumin (BSA). The ventral portion of the mesencephalic flexure, a region of the developing brain rich in dopaminergic neurons, is used for the cell preparations.
The midbrains are dissociated by trypsinisation for 20 min at 37° C. (solution at a final concentration of 0.05% trypsin and 0.02% EDTA). The reaction is stopped by the addition of Dulbecco’s modified Eagle’s medium (DMEM) containing DNAase I grade II (0.5 mg/mL) and 10% of foetal calf serum (FCS). Cells are then mechanically dissociated by 3 passages through a 10 mL pipette. Cells are then centrifuged at 180 x g for 10 min at +4° C. on a layer of BSA (3.5%) in L15 medium. […] Viable cells are counted in a Neubauer cytometer using the trypan blue exclusion test. […] Six wells per condition are assessed. […]

**Q.** Which EC50 (TRAP1 enzyme; 150 nM Trap1, 20 µM ATP, concentration for half maximal activation, read-out: ADP GLO DRC: GeoMean EC50) does the source give for `O=C(Nc1ccc2c(c1)S(=O)(=O)N(c1ccc(Br)cc1)CCO2)c1cnc(-c2ccccc2)[nH]1` [Compound 1331, N-(2-(4-bromophenyl)-1,1-dioxido-3,4-dihydro-2H-benzo[b][1,4,5]oxathiazepin-8-yl)-2-phenyl-1H-imidazole-5-carboxamide] here?
**A.** < 20 µM

**Q.** What about the Emax (TRAP1 enzyme; maximal percent activation, read-out: ADP GLO DRC: Mean Emax) of the same compound?
**A.** 150 to 200%

**Q.** What about the ROS production [1] of the same compound?
**A.** reduction in ROS
